Assay results reported in ChEMBL document CHEMBL1770078, “Discovery of a potent peptidic cyclophilin A inhibitor Trp-Gly-Pro” (Eur J Med Chem, 2011).
Where a SMILES comes first, the peptide text is derived from it.

Tests used:
[1] = tested on: Human immunodeficiency virus 1; test: Antiviral activity against HIV1 3B infected in human MT2 cells assessed as inhibition of viral replication at 1 mM after 48 hrs by flow cytometry; type: functional; conditions: Human immunodeficiency virus 1, 3B, MT2, 48 h
[2] = target: T1, Peptidyl-prolyl cis-trans isomerase A (Homo sapiens, UniProt P62937); test: Binding affinity to Cyclophilin A
Target sequence in this assay (P62937 whole entry): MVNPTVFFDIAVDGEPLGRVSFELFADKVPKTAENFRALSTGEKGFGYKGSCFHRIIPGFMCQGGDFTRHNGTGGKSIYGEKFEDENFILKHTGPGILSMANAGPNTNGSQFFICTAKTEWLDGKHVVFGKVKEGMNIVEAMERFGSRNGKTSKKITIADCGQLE

[3] = target: T1, Peptidyl-prolyl cis-trans isomerase A; test: Inhibition of PPIase activity of Cyclophilin A by Spectrophotometry
SK-HEP1 = test: Cytotoxicity against human SKHEP1 cells upto 100 uM after 48 hrs by MTT assay; type: cell-based; conditions: sk-hep1, 48 h

SMILES	inhibition at 1000 µM [1] [%]	Kd ([2]; read-out: Kd) [nM]	inhibition [3]	IC50 ([3]; read-out: IC50) [nM]	Activity (SK-HEP1)	Kd [2]	IC50 [3]
N[C@@H](Cc1c[nH]c2ccccc12)C(=O)NCC(=O)N1CCC[C@H]1C(=O)O (H-Trp-Gly-Pro-OH)	75.5	3410	Dose-dependent effect	33.1	Non-toxic		
N[C@@H](Cc1ccc(O)cc1)C(=O)NCC(=O)N1CCC[C@H]1C(=O)O (H-Tyr-Gly-Pro-OH)						Not Active	Not Active
C[C@H](NC(=O)[C@@H](N)Cc1c[nH]c2ccccc12)C(=O)NCC(=O)N1CCC[C@H]1C(=O)O (H-WAGP-OH)						Not Active	Not Active
